# Results as given in a melting point compilation (Tetko et al.).
row,Compound,melting point [°C]
1,CC(=O)C1(O)CCC2(C)C(CCC3C4CCC(=O)C4(C)CCC32)C1 (configuration not stated),211 to 212
2,NC(=O)CC(N)=O,169
3,COc1cccc2c(=O)c3c(n(C)c12)OC(C(C)C)C3 (configuration not stated),119
4,FC(F)(F)C(Cl)Br (configuration not stated),-118
5,Cc1ccc2cccc(C)c2c1,-13.9
6,N#Cc1ccccc1CCl,61
7,C=CCSc1nnc(-c2cc(Br)cc(Br)c2O)n1N,162
8,COCCCNc1nc(NCCCOC)nc(SC)n1,55
9,CC(=O)C(C(C)=O)=C1SCCCS1,91
10,O=C1c2ccccc2C(=C2c3ccccc3C(=O)c3ccccc32)c2ccccc21,300
11,CC(C)(C)N(NC(=O)c1ccc(Cl)cc1)C(=O)c1ccccc1,200
12,OCCCCCCCCCCl,28
13,Nc1c(F)cc(F)cc1Br,40
14,CN(C)C=C[N+](=O)[O-],103 to 105
15,CC(=O)N(C(C)=O)c1cc([N+](=O)[O-])c(/C=C/c2ccccc2)c([N+](=O)[O-])c1/C=C/c1ccccc1,175
16,O=P(c1ccc(Cl)cc1)(c1ccc(Cl)cc1)c1ccc(Cl)cc1,176 to 178
17,O=c1c(C2CC(c3ccc(-c4ccccc4)cc3)Cc3ccccc32)c(O)oc2ccccc12 (configuration not stated),213
18,O=[N+]([O-])c1cccc(-n2cccc2)c1,72 to 74
19,Nc1nc(=O)[nH]cc1Br,240 to 243
20,Nc1cc2c3ccccc3ccc2c2ccccc12,210
21,O=C(O)c1ccc(=O)[nH]c1,314 to 316
22,Cc1cc(C)c(C2(C)CC(C(=NNC(N)=S)c3cc4ccccc4o3)C2)c(C)c1 (configuration not stated),258 to 259

row,Compound,melting point [°C]
1,O=C(NCO)NCO,126
2,Brc1ccc(OC2CCOCC2)nc1,96 to 98
3,Oc1cc(Cl)c(Cl)c(Cl)c1Cl,116
4,NC(CC(=O)O)C1CCCCC1 (configuration not stated),234 to 235
5,Cc1cnc(N)c(Br)c1,72
6,CCCCN(CCN(CCCC)C(=O)N1CCOCC1)C(=O)N1CCOCC1,41.5
7,Sc1ncccn1,230
8,COC(=O)CCC(C)C1CCC2C3CCC4CCCCC4(C)C3CC(=O)C12C (configuration not stated),109
9,CCCc1ssc(=S)c1C,49
10,CC1CCc2cc3c(cc2N1)CCC(C)N3 (configuration not stated),125 to 134
11,CC(C)(c1ccc(OCC2CO2)cc1)c1ccc(OCC2CO2)cc1 (configuration not stated),10
12,COc1ccccc1C1(C)CCc2oc3ccc(Cl)cc3c2-c2oc(C)cc21 (configuration not stated),197 to 198
13,OC1CCC(Cl)CC1 (configuration not stated),82.5
14,Cc1cc(Cc2cc(C)cc(C(C)(C)C)c2O)c(O)c(C(C)(C)C)c1,123
15,CC(=O)c1ccc2c(c1)OCO2,86 to 89
16,CCCCc1nc(CO)c[nH]1,94 to 97
17,COc1cc2c(c(O)c1OC)CCN(C)C2C (configuration not stated),152
18,O=C(O)CN(CCOCCOCCN(CC(=O)O)CC(=O)O)CC(=O)O,240 to 245
19,Clc1nc(Cl)c2nc[nH]c2n1,184 to 186
20,CC(=O)OC1(C(C)=O)CCC2C3CC(C(F)(F)F)C4=CC(=O)CCC4(C)C3CCC21C (configuration not stated),206
21,Cn1ncc(C(N)=O)c1N,231 to 232
22,CCOC(=O)C(Br)C(C)Br (configuration not stated),58.5

row,Compound,melting point [°C]
1,CC(=O)OCCOCCOC(C)=O,18
2,CC(=O)NCCCCCCNC(C)=O,128 to 129
3,COC(=O)C(C#N)=C(SC)SC,85 to 87
4,"O=C1CC2C(CC(O)C2CO)O1 (single isomer, unassigned; (-))",114 to 118
5,C=CC1(C(C)CCC)C(=O)NC(=O)NC1=O (configuration not stated),90
6,COc1cc2c(c3oc(=O)c4c(c13)CCOC4=O)C1C=COC1O2 (configuration not stated),245
7,O=C1OC(C2CCCCC2)Cc2ccccc21 (configuration not stated),71 to 74
8,Cn1c(=O)c2c(ncn2CN2CCOCC2)n(C)c1=O,177
9,CCN(CC)c1ccc(C(c2ccc(N(CC)CC)cc2C)c2ccc(N(CC)CC)cc2C)c(C)c1,163 to 165
10,FC(F)(F)C(F)(F)C(F)(F)C(F)(F)C(F)(F)C(F)(F)C(F)(F)C(F)(F)C(F)(F)C(F)(F)C(F)(F)C(F)(F)F,75 to 77
11,Cc1cc(C2(c3cc(C)c(O)c(Br)c3C)OS(=O)(=O)c3ccccc32)c(C)c(Br)c1O,218
12,CN1C(=O)c2ccc([N+](=O)[O-])cc2C1=O,178 to 179
13,OC1CCCCC1Cl (configuration not stated),29
14,c1ccc(C23CC4CC(CC(C4)C2)C3)cc1,84 to 85
15,CC1(C)c2cccc(P(C(C)(C)C)C(C)(C)C)c2Oc2c(P(C(C)(C)C)C(C)(C)C)cccc21,155
16,OC12CC=CCC1(O)CC=CC2 (configuration not stated),83
17,C=CC(=O)NC(CO)(CO)CO,136 to 141
18,CSc1nc2[nH]c(=S)n(-c3ccccc3)c(=O)c2n1C,268 to 270
19,O=S(c1ccc(Cl)cc1)c1ccc(Cl)cc1,140 to 145
20,CC(=O)c1cc2c(cc1Br)OCCCO2,56 to 58
21,COC(=O)CCC(C)C1CCC2C3C(=O)CC4CCCCC4(C)C3CC(=O)C12C (configuration not stated),140
22,Cc1cc(Br)c2c(c1N)C(=O)c1ccccc1C2=O,245 to 252

# The next lines start with the values.
row,melting point [°C],Compound
1,96,CC(=O)Nc1ccccc1C(F)(F)F
2,192,COc1cc(C=CC(=O)O)ccc1OCc1ccccc1
3,20,O=Cc1cccc(Br)c1
4,186,COc1cc(C(N)=O)cc(Cl)n1
5,159,Cc1ccc(-n2c(-c3cccnc3)noc2=S)cc1
6,160,COc1ccc(Br)c(C(N)=O)c1
7,173,CCOc1ccc(C(=O)OCCN(CC)CC)cc1
8,162 to 163,COC(=O)c1cc2oc(C=O)cc2n1C
9,78 to 81,CN(N)C(=O)c1cc(Cl)ccc1N
10,140,COc1cc(/C=N/c2ccccc2)ccc1O
11,124,CCC(Oc1c(I)cc(I)cc1I)C(=O)O (configuration not stated)
12,96 to 98,OCc1ccc(N2CCOCC2)cc1
13,110,CCSc1nnc(CCn2c(C)nc3ccccc32)n1-c1ccccc1
14,63,C=CCOC(=O)N1CCN(C(=O)OCC2c3ccccc3-c3ccccc32)C(C(=O)O)C1 (configuration not stated)
15,66,CC(=O)c1csc(-c2ccc(C(F)(F)F)cc2)n1
16,286,NNc1ccc(S(=O)(=O)O)cc1
17,107,OCc1csc(-c2ccc(C(F)(F)F)cc2)n1
18,90.5,c1ccc(Nc2ccccn2)nc1
19,94 to 96,CC(C(=O)NCCO)c1ccc(-c2ccccc2)c(F)c1 (configuration not stated)
20,156 to 158,O=Nc1ccc2ccccc2c1O
21,180 to 182,CC(C)(C)OC(=O)N[C@]1(C(=O)O)C[C@@H]1c1ccccc1

row,melting point [°C],Compound
1,150,O=C(O)C1=Cc2ccccc2OC1
2,198,CCOc1ccc(C(=O)O)cc1
3,59,COC(=O)c1cc(Cl)cc(Cl)c1
4,194,Cc1cc(-n2c(=O)[nH]c(=O)n(C)c2=O)ccc1Oc1ccc(SC(F)(F)F)cc1
5,80 to 80.5,O=C(Cl)c1cccc(-c2nccs2)c1
6,84,O=C(NC(CSSCC(NC(=O)OCc1ccccc1)C(=O)O)C(=O)O)OCc1ccccc1 (configuration not stated)
7,146 to 148,OCc1cc(O)ccc1I
8,72,CCOC(=O)CC(=O)c1ccc([N+](=O)[O-])cc1
9,258 to 260,CCOC(=O)C(C#N)=C(N)c1cc2cc(Br)cc(Br)c2oc1=O
10,174 to 176,CC(=O)OC(=CC=C(OC(C)=O)c1ccccc1)c1ccccc1
11,137 to 138,CCOC(=O)C(C#N)=Cc1ccc(Cl)cc1
12,104 to 108,COC(=O)c1ccc(N)c(Br)c1
13,74 to 76,O=C(Cl)c1cc(-c2ccco2)on1
14,209 to 214,N[C@@H](CSCc1ccccc1)C(=O)O
15,155,Ic1ccc(I)nc1
16,85.5,Cc1ccc2cnccc2c1
17,123,O=C(O)C(O)c1ccc(F)cc1F (configuration not stated)
18,124 to 128,CC(=O)Oc1cn(C(C)=O)c2ccc(Br)cc12
19,165 to 167,CCOC(=O)C(C#N)=CNc1ccccc1Cl
20,152 to 153,O=Cc1cc(C(=O)O)ccc1F
21,75,O=C(O)C(F)(F)c1ccccc1

row,melting point [°C],Compound
1,170,CS(=O)(=O)c1ccc2c(c1)N(CCCN1CCC(C(N)=O)CC1)c1ccccc1S2
2,258 to 260,O=C(O)Cn1ccnc1
3,55,CC(=O)c1c(-c2ccccc2)cc2ccccc2c1O
4,202 to 206,Cc1ccc(S(=O)(=O)n2ccc(C(=O)O)c2)cc1
5,185 to 187,O=C(O)c1ccccc1CS(=O)c1ccccc1 (configuration not stated)
6,58 to 61,CC(=O)c1cc(Br)ccc1O
7,127 to 129,CC(C)(C)OC(=O)N1CCN(c2cc(C#N)ccn2)CC1
8,112 to 115,CCOC(=O)C(N)=O
9,173,CCOc1ccc(NC(N)=O)cc1
10,45.5,CCCCCCCC(=O)Oc1c(Br)cc(C#N)cc1Br
11,111 to 112,Nc1ccccc1NC1CCN(Cc2ccccc2)CC1
12,232,O=C1c2ccccc2C(=O)c2c1cccc2[N+](=O)[O-]
13,84,N#Cc1cc(F)ccc1Cl
14,86,CC(C)Cc1ccc(CC(=O)O)cc1
15,147,Cc1ccc(S(=O)(=O)N/N=C2\C=CC(C)(c3ccccc3)CC2)cc1 (configuration not stated)
16,192,Cc1cc(C)c(N)c(C(=O)O)c1
17,202 to 206,O=C(O)c1cccc(-c2cccnc2)c1
18,231,O=C(O)c1ccc(C(=O)O)c(C(=O)O)c1
19,272,CC(=O)Nc1cc2c(cc1/C=C/c1ccccc1)CC(c1ccccc1)N2C(C)=O (configuration not stated)
